The conditions of data set [1]: 101 kPa, Liquid.
The nature of data set [2]: xn = mol fraction of the nth substance listed. To be noted: 101 kPa, Liquid, x2 = 0.

Numbers after ± are expanded uncertainties.

This note sets out measurements from the NIST ThermoML archive (doi:10.1016/j.jct.2004.11.017).

One may read the mass density as the mass of a sample divided by its volume. As for `CC[S+]([O-])CC` [diethyl sulfoxide], the mass density in data set [1] (298.15 K) turned out to be 1010.2 ± 1.4 kg/m3; in data set [1] (303.15 K), 1005.8 ± 1.4 kg/m3; in data set [1] (308.15 K) it was 1001.4 ± 1.3 kg/m3; in data set [1] (313.15 K) it was 997 ± 1.3 kg/m3; in data set [1] (318.15 K), 992.6 ± 1.4 kg/m3; in data set [1] (323.15 K) it was 988.2 ± 1.5 kg/m3. Also, the mass density in data set [1] (328.15 K) was found to be 983.9 ± 1.5 kg/m3; in data set [1] (333.15 K) it was 979.5 ± 1.6 kg/m3; in data set [1] (338.15 K), 975.1 ± 1.7 kg/m3; in data set [1] (343.15 K), 970.6 ± 1.8 kg/m3.

In the case of `O` [water] + CC[S+]([O-])CC, the mass density was found to be 996.6 ± 1.3 kg/m3 in data set [2] (298.15 K); 995.2 ± 1.4 kg/m3 in data set [2] (303.15 K); 993.6 ± 1.4 kg/m3 in data set [2] (308.15 K); 991.9 ± 1.4 kg/m3 in data set [2] (313.15 K); 989.7 ± 1.4 kg/m3 in data set [2] (318.15 K); 987.6 ± 1.5 kg/m3 in data set [2] (323.15 K). Further, the mass density in data set [2] (328.15 K) was 985.3 ± 1.5 kg/m3; in data set [2] (333.15 K), 982.8 ± 1.6 kg/m3; in data set [2] (338.15 K), 979.3 ± 1.6 kg/m3; in data set [2] (343.15 K), 977.5 ± 1.6 kg/m3.
